From patent US20250312462A1, “PAK1 DEGRADERS AND METHODS OF USE THEREOF” (INSTITUTE FOR CANCER RESEARCH D/B/A THE RESEARCH INSTITUTE …, priority 2022, published 2025)

How the values were obtained:
[1] = target: DCAMKL1 (Homo sapiens, UniProt O15075); test: KINOMEscan; conditions: read-out: Percent Control
Protocol: (§4) The kinase engagement assay (KINOMEscan®) was performed by DiscoverX assessing binding abilities toward a set of kinases.

[2] = target: T1, RNF166 (Homo sapiens, UniProt Q96A37+Q96SW2); test: Global multiplexed mass spectrometry proteomics in MOLT4 cells; type: cell-based; conditions: 1 μM, 5 hours
T1 construct: endogenous in cells; host or cells: MOLT4
Protocol: (§1) MOLT4 cells were treated with DMSO in biological triplicate and 1 μM BJG-05-039 for 5 hours and harvested by centrifugation. Cell lysis was performed by the addition of Urea buffer (8 M Urea, 50 mM NaCl, 50 mM 4-(2-hydroxyethyl)-1-piperazineethanesulfonic acid (EPPS) pH 8.5, Protease and Phosphatase inhibitors) followed by manual homogenization by 20 passes through a 21-gauge (1.25 in. long) needle. Lysate was clarified by centrifugation at 4° C. and protein quantified using bradford (Bio-Rad) assay. 100 μg of protein for each sample was reduced, alkylated and precipitated using methanol/chloroform as described (Donovan, et al. (2018) Elife 7: e38430). The resulting precipitated protein was resuspended in 4 M Urea, 50 mM HEPES pH 7.4, buffer for solubilization, followed by dilution to 1 M urea with the addition of 200 mM EPPS, pH 8. Proteins were digested for 12 hours at room temperature with LysC (1:50 ratio), followed by dilution to 0.5 M urea and a second digestion step was performed by addition of trypsin (1:50 ratio) for 6 hours at 37° C. Anhydrous ACN was added to each peptide sample to a final concentration of 30%, followed by addition of Tandem mass tag (TMT) reagents at a labelling ratio of 1:4 peptide:TMT label. TMT labelling occurred over a 1.5 hour incubation at room temperature followed by quenching with the addition of hydroxylamine to a final concentration of 0.3%. Each of the samples were combined using adjusted volumes and dried down in a speed vacuum followed by desalting with C18 SPE (Sep-Pak, Waters). […]
(§2) Quantification was performed using a MS3-based TMT method as described (Donovan et al. (2020) Cell 183(6):1714-1731). […]
(§3) Proteome Discoverer 2.4 (Thermo Fisher Scientific) was used for .RAW file processing and controlling peptide and protein level false discovery rates, assembling proteins from peptides, and protein quantification from peptides. […]

[3] = target: T2, Aiolos (IKZF3) (Homo sapiens, UniProt Q96SW2+Q9UKT9); test: as above; type: cell-based; conditions: 1 μM, 5 hours
T2 construct: endogenous in cells; host or cells: MOLT4
Protocol: as §1, §2, §3

[4] = target: T3, Ikaros (IKZF1) (Homo sapiens, UniProt Q13422+Q96SW2); test: as above; type: cell-based; conditions: 1 μM, 5 hours
T3 construct: endogenous in cells; host or cells: MOLT4
Protocol: as §1, §2, §3

[5] = target: CSNK2A2 (Homo sapiens, UniProt P19784); test: KINOMEscan; conditions: read-out: Percent Control
Protocol: as §4

[6] = target: DMPK2 (Homo sapiens, UniProt Q6DT37); test: KINOMEscan; conditions: read-out: Percent Control
Protocol: as §4

[7] = target: TLK1 (Homo sapiens, UniProt Q9UKI8); test: KINOMEscan; conditions: read-out: Percent Control
Protocol: as §4

[8] = target: TAOK3 (Homo sapiens, UniProt Q9H2K8); test: KINOMEscan; conditions: read-out: Percent Control
Protocol: as §4

[9] = target: PCTK2 (Homo sapiens, UniProt Q00537); test: KINOMEscan; conditions: read-out: Percent Control
Protocol: as §4

[10] = target: MST3 (Homo sapiens, UniProt Q9Y6E0); test: KINOMEscan; conditions: read-out: Percent Control
Protocol: as §4

[11] = target: PIK3CA(H1047L) (Homo sapiens, UniProt P42336, H1047L); test: KINOMEscan; conditions: read-out: Percent Control
Protocol: as §4

[12] = target: PHKG1 (Homo sapiens, UniProt Q16816); test: KINOMEscan; conditions: read-out: Percent Control
Protocol: as §4

[13] = target: BRSK1 (Homo sapiens, UniProt Q8TDC3); test: KINOMEscan; conditions: read-out: Percent Control
Protocol: as §4

[14] = target: CDKL2 (Homo sapiens, UniProt Q92772); test: KINOMEscan; conditions: read-out: Percent Control
Protocol: as §4

[15] = target: MARK2 (Homo sapiens, UniProt Q7KZI7); test: KINOMEscan; conditions: read-out: Percent Control
Protocol: as §4

[16] = target: TRPM6 (Homo sapiens, UniProt Q9BX84); test: KINOMEscan; conditions: read-out: Percent Control
Protocol: as §4

[17] = target: CSNK1G1 (Homo sapiens, UniProt Q9HCP0); test: KINOMEscan; conditions: read-out: Percent Control
Sequence of CSNK1G1 (Q9HCP0 whole entry): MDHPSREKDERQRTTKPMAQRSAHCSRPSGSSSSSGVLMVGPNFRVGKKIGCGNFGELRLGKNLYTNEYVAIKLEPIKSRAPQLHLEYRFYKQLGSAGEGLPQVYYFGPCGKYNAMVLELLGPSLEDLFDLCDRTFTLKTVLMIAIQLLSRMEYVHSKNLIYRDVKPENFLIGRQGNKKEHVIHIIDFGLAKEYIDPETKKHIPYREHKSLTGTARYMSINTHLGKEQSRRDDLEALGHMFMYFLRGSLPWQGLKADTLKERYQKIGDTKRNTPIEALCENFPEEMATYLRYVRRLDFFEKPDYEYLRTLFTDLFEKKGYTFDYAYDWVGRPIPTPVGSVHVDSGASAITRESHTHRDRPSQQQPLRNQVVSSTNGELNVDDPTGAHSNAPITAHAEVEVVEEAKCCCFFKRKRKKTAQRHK
Protocol: as §4

Sequence of PHKG1 (Q16816 whole entry): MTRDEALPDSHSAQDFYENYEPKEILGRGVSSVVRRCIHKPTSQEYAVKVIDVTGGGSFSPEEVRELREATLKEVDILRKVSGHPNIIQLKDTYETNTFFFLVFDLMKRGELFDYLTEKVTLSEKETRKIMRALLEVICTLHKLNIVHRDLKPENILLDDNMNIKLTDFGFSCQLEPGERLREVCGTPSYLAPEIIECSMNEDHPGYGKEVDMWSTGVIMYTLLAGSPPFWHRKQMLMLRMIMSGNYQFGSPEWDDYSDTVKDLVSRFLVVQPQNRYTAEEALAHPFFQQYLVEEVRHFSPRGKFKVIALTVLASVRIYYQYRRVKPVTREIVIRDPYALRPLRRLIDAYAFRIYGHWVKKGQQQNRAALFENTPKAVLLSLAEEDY
T2 sequence (Q9UKT9 whole entry): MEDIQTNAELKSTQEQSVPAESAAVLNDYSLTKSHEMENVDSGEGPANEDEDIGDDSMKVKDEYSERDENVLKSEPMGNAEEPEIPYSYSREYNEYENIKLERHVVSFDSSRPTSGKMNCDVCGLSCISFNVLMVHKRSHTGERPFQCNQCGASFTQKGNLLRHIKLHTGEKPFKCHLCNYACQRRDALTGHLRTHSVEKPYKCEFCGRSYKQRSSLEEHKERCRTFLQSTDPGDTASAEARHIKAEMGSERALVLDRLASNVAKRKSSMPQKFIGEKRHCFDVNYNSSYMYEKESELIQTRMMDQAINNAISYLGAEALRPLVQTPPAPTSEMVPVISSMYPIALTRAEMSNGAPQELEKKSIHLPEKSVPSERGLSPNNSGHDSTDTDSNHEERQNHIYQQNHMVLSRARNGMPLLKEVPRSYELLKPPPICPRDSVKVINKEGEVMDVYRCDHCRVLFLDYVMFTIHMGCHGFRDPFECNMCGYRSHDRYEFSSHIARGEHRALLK
T2 sequence (Q96SW2 whole entry): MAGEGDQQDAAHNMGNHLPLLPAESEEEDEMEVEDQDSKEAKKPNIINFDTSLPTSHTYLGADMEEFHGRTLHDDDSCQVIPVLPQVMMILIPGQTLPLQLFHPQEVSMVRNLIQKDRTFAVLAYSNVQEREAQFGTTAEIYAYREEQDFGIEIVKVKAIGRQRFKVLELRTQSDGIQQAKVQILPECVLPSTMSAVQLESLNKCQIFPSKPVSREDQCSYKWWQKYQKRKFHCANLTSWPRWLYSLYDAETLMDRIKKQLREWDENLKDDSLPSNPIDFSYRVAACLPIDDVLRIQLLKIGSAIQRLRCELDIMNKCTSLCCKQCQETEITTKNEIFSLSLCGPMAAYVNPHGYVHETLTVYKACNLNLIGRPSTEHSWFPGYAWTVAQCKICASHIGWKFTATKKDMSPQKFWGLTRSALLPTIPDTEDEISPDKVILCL
T2 sequence (Q16531 whole entry partner): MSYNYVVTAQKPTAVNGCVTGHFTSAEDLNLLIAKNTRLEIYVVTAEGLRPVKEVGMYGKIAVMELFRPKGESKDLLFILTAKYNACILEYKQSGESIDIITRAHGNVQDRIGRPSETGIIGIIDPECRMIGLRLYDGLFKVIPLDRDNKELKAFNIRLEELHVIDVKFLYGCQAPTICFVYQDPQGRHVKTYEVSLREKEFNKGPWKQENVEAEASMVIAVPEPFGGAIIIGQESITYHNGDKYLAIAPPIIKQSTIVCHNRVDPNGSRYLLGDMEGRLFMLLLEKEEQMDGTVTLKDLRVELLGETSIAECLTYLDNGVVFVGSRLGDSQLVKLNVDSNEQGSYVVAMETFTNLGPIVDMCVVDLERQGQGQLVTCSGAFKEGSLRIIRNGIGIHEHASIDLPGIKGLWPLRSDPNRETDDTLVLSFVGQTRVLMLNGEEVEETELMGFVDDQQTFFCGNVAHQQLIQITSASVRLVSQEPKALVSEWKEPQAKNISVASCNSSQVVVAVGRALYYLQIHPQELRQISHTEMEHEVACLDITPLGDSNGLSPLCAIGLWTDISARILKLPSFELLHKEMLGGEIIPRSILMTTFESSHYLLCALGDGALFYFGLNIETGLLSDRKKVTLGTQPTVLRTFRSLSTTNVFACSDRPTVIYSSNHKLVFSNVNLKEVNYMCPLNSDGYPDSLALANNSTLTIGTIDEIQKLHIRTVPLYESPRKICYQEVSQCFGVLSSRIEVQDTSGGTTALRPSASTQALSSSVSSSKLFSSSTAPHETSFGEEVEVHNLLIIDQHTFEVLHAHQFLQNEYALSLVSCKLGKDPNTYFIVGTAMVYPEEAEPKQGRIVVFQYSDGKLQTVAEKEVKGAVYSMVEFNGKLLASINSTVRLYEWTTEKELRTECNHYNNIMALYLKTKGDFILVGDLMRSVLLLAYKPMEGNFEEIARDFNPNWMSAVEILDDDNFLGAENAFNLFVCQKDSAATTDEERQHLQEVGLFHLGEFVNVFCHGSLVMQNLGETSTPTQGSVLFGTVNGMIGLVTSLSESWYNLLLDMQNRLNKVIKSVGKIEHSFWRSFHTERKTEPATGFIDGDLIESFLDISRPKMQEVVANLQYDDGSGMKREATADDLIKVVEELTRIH
Sequence of TAOK3 (Q9H2K8 whole entry): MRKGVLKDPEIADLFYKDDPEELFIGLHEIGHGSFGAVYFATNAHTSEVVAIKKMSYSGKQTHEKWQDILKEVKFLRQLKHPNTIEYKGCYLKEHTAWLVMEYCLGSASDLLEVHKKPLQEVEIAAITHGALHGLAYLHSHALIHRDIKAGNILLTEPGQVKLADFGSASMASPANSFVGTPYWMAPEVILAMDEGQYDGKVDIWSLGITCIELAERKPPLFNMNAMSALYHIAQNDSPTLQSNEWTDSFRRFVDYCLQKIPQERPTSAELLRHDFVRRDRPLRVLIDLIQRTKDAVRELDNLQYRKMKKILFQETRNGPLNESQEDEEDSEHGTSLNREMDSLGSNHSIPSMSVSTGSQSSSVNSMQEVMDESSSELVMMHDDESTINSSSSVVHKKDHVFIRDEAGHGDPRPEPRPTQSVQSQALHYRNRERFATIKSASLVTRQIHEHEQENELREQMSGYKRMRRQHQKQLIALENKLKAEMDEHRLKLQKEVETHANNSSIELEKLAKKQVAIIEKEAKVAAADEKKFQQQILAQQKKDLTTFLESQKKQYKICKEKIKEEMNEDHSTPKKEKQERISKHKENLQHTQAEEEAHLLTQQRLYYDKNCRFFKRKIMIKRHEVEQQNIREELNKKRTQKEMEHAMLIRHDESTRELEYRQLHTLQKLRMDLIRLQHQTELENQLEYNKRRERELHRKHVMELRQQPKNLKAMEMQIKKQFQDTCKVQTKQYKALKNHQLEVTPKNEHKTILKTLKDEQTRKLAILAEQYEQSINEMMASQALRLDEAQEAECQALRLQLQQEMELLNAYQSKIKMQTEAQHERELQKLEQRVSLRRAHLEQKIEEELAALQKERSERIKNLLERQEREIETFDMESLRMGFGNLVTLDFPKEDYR
Sequence of MST3 (Q9Y6E0 whole entry): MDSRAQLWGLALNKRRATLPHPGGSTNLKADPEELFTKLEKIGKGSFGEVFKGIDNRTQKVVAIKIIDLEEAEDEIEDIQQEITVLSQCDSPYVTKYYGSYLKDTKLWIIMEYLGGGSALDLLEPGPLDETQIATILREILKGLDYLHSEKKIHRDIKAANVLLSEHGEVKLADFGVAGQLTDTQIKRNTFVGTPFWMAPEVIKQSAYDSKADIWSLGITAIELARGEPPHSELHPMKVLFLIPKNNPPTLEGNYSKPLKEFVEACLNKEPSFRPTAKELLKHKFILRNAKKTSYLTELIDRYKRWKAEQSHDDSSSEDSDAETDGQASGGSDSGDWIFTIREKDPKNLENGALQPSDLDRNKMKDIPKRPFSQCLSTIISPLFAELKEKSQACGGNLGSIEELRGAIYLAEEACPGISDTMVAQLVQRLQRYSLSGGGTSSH
Sequence of CDKL2 (Q92772 whole entry): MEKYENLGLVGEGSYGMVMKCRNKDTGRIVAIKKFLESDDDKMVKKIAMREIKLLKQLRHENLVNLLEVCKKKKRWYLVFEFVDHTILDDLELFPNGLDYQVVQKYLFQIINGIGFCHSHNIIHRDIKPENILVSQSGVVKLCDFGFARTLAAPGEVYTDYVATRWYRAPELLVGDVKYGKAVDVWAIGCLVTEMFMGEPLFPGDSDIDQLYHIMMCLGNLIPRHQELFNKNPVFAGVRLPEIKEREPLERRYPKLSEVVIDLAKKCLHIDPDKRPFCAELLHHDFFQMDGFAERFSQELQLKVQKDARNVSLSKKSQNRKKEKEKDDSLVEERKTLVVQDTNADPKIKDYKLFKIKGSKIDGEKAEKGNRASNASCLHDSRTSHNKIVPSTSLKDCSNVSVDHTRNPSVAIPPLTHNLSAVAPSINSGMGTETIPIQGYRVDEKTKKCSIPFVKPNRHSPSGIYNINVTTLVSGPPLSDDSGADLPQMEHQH

O=C1CCC(N2C(=O)c3cccc(NCCCCCCCCNC(=O)N4CC[C@H](NC5=Nc6cc(F)ccc6N(CC(F)F)c6ccc(Cl)cc65)C4)c3C2=O)C(=O)N1 (stereo partly drawn) [BJG-05-039, (3S)-3-((2-Chloro-5-(2,2-difluoroethyl)-8-fluoro-5H-dibenzo[b,e][1,4]diazepin-11-yl)amino)-N-(8-((2-(2,6-dioxopiperidin-3-yl)-1,3-dioxoisoindolin-4-yl)amino)octyl)pyrrolidine-1-carboxamide]
remaining binding at 10 µM [1]: 77%
Change in protein abundance [2]: strongly downregulated
Change in protein abundance [3]: strongly downregulated
Change in protein abundance [4]: strongly downregulated
remaining binding at 10 µM [5]: 78%
remaining binding at 10 µM [6]: 72%
remaining binding at 10 µM [7]: 46%
remaining binding at 10 µM [8]: 85%
remaining binding at 10 µM [9]: 58%
remaining binding at 10 µM [10]: 52%
remaining binding at 10 µM [11]: 63%
remaining binding at 10 µM [12]: 65%
remaining binding at 10 µM [13]: 51%
remaining binding at 10 µM [14]: 77%
remaining binding at 10 µM [15]: 38%
remaining binding at 10 µM [16]: 94%
remaining binding at 10 µM [17]: 52%
